Laboratory results from article PMC8151276, “An Integrated Approach toward NanoBRET Tracers for Analysis of GPCR Ligand Engagement” (Molecules, 2021).

Columns and labels:
Type in all cases: binding
HTR1B = target: T1, HTR1B (Homo sapiens, UniProt P28222); test: NanoBRET screen HiBiT-HTR1B in HEK293
T1 construct: purchased Promega (in-house HiBiT-GPCR construct library, NanoBRET)
Experimental: (§1) Each tracer candidate was screened across the entire library of HiBiT-GPCR constructs using NanoBRET as the detection modality. As depicted in Figure 4A, the specificity of interactions was evaluated through decrease in BRET due to competitive displacement of a bound tracer by excess parental compound. Each tracer was analyzed for binding to each HiBiT-GPCR fusion in the absence and in the presence of competing parental compound. Briefly, HEK293 cells were transfected with HiBiT-GPCR constructs diluted into promoterless DNA to reduce expression and maximize translocation to the cell surface. Each tracer candidate was then screened at concentrations of 1 μM and 0.1 μM across cells expressing these fusions. Cells were treated for 1.5 h with tracer either alone or in the presence of 20 μM competing parental compound (i.e., control). BRET was measured upon addition of purified LgBiT and subsequent complementation with HiBiT genetically fused to a GPCR. The specificity of interactions was assessed through a decrease in BRET signal due to competitive displacement of the bound tracer. To further gauge the robustness of these interactions, the fold response over the control (i.e., BRETtracer/BRETcontrol) was calculated. We chose a 1.5-fold response, which translates to ≥7-fold signal over noise as the minimal threshold required to score an interaction as positive. […]. Below we highlight the screening results obtained for our exemplary fluorescent tracers based on Clozapine, Amitriptyline and AZD1283.
(§2) HiBiT-GPCR DNA constructs were diluted in 10 mM Tris pH 8 to a final concentration of 0.01 μg/μL, arrayed in 96-well plates and stored at −20 °C. For transfection, HEK293 cells were suspended in Opti-MEM (without phenol red) supplemented with 2% fetal bovine serum (Seradigm) and 100 units/mL penicillin–streptomycin (Gibco) at a final concentration of 220,000 cells/mL and dispensed into white 96-well plates at 90 μL/well. Subsequent transfections and screens were carried using an Agilent Bravo Automated Liquid Handling Platform. First, the 96-well HiBiT DNA arrays were diluted 25-fold in Opti-MEM (without serum or phenol red) to a final concentration of 0.0004 μg/μL and 20 μL of the diluted DNAs were transferred into new 96-well plates. Next, promoterless carrier DNA (1 μg/μL) was diluted 25-fold (0.04 μg/μL) and then dispensed into the diluted arrays at 20 μL/well. Following brief mixing, Viafect transfection reagent (Promega) diluted 16-fold into Opti-MEM was dispensed into the plates at 40 μL/well. After mixing by pipetting, plates were incubated for 10 min on the pipetting station deck. The DNA-transfection reagent complexes were then added to plates containing cells. To facilitate the screen, 10 μL of DNA-transfection reagent complexes were added in duplicates to the top 4 and bottom 4 rows, resulting in two identical 48-well arrays per plate. Plates with transfected cells were incubated for 18–20 h at 37 °C/5% CO2. A screen of each tracer across the entire library using two different concentrations requires duplicate plates of transfected cells. Depending on the number of tracers being screened, transfections can be scaled up using the same ratios. The next day, for each tracer, four 20× screening solutions in tracer dilution buffer (Promega) were prepared: two duplicates at final concentration of 20 μM and two duplicates at a final concentration of 2 μM. A competing unmodified compound was added to one of each duplicate at a final concentration of 400 μM. The four resulting solutions were diluted 4-fold in Opti-MEM without serum or phenol red to generate 5× solutions (5 µM and 0.5 µM tracer +/− 100 μM competing compound). To screen the library, a BioTek MultiFlo FX liquid dispenser was used to dispense 22.5 µL of tracer solution to the top 4 rows and 22.5 µL tracer + competing compound solution to the 4 bottom rows. Plates were briefly mixed on an orbital shaker and incubated for 1.5 h at room temperature. […]

RXFP3 = target: T2, RXFP3 (Homo sapiens, UniProt Q9NSD7); test: NanoBRET screen HiBiT-RXFP3 in HEK293
T2 construct: purchased Promega (in-house HiBiT-GPCR construct library, NanoBRET)
T2 sequence (Q9NSD7 1-469): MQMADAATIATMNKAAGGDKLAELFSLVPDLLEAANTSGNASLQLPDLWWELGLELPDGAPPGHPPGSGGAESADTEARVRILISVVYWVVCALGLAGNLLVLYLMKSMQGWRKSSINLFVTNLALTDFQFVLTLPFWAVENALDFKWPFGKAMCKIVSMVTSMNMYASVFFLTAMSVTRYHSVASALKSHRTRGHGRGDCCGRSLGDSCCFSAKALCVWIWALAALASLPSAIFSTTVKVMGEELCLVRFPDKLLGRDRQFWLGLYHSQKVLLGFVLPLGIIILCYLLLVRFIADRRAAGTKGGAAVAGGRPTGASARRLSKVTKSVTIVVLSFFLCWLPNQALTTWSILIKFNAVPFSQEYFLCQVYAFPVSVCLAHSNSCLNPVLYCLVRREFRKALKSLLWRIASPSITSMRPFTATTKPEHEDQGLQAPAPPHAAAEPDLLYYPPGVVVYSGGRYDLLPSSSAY
Experimental: as §1, §2

OPRL1 = target: T3, OPRL1 (Homo sapiens, UniProt P41146); test: NanoBRET screen HiBiT-OPRL1 in HEK293
T3 construct: purchased Promega (in-house HiBiT-GPCR construct library, NanoBRET)
T3 sequence (P41146 whole entry): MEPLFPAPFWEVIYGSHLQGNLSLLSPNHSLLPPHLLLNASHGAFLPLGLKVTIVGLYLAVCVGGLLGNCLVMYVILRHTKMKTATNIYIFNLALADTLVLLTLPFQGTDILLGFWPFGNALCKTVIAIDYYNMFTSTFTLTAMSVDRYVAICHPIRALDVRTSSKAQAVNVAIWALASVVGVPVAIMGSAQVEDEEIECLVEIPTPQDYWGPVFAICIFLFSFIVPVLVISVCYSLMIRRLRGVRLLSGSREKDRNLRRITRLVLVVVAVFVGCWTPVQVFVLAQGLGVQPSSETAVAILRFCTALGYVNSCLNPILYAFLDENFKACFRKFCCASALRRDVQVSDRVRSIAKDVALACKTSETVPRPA
Experimental: as §1, §2

NPBWR1 = target: T4, NPBWR1 (Homo sapiens, UniProt P48145); test: NanoBRET screen HiBiT-NPBWR1 in HEK293
T4 construct: purchased Promega (in-house HiBiT-GPCR construct library, NanoBRET)
T4 sequence (P48145 1-328): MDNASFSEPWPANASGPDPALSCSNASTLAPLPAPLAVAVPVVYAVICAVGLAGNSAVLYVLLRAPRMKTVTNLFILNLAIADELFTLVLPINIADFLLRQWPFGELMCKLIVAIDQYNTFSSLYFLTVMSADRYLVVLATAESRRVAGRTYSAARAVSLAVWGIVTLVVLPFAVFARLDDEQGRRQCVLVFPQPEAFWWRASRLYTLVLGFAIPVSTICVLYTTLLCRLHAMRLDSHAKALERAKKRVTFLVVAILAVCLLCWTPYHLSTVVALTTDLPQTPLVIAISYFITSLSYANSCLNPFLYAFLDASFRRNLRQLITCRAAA
Experimental: as §1, §2

CCR7 = target: T5, CCR7 (Homo sapiens, UniProt P32248); test: NanoBRET screen HiBiT-CCR7 in HEK293
T5 construct: purchased Promega (in-house HiBiT-GPCR construct library, NanoBRET)
T5 sequence (P32248 25-378): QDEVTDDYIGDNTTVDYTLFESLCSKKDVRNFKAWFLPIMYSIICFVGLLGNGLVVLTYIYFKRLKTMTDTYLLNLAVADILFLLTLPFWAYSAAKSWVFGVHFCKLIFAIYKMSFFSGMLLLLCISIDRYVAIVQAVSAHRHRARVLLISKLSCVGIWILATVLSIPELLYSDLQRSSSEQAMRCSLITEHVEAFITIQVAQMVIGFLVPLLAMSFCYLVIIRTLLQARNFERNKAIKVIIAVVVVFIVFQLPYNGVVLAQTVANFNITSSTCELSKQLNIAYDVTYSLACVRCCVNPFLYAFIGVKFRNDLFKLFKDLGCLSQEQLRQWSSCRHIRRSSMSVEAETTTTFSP
Experimental: as §1, §2

[1] = tracer at 0.1μM, listed as amitriptyline-b-2-NB590
[2] = tracer at 1μM, listed as amitriptyline-b-2-NB590

T1 sequence (P28222 whole entry): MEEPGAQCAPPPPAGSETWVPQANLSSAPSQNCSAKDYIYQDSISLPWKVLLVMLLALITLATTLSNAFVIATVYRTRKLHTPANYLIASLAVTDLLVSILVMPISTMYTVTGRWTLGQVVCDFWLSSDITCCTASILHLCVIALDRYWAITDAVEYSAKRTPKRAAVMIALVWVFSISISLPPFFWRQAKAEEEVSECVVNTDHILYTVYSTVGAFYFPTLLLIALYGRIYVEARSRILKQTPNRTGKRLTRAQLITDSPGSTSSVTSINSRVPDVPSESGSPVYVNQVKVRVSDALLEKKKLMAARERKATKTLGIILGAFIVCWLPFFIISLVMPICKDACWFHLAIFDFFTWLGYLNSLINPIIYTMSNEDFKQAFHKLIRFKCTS

Row | Compound | NanoBRET Fold Response (HTR1B; HTR1B, tracer 0.1μM) | NanoBRET Fold Response (HTR1B; HTR1B, tracer 1μM) | NanoBRET Fold Response (RXFP3; RXFP3, tracer 0.1μM) | NanoBRET Fold Response (RXFP3; RXFP3, tracer 1μM) | NanoBRET Fold Response (OPRL1; OPRL1, tracer 0.1μM) | NanoBRET Fold Response (OPRL1; OPRL1, tracer 1μM) | NanoBRET Fold Response (NPBWR1; NPBWR1, tracer 0.1μM) | NanoBRET Fold Response (NPBWR1; NPBWR1, tracer 1μM) | NanoBRET Fold Response (CCR7; CCR7, tracer 0.1μM) | NanoBRET Fold Response (CCR7; CCR7, tracer 1μM) | also measured
1 | Cc1nc2n(c(=O)c1CCN1CCC(c3noc4cc(F)ccc34)CC1)CCCC2OC(=O)NCCOCCOCCOCCOCCNC(=O)CCc1ccc2n1[B-](F)(F)[N+]1=C(c3ccc[nH]3)C=CC1=C2 (stereo not shown) [Risperidone-2-NB590] | 3.33 | 2.70 | 1.00 | 1.00 | 0.97 | 0.96 | 1.07 | 1.06 | 1.00 | 1.04 | –
2 | CCOC(=O)c1cc(C#N)c(N2CCC(C(=O)NS(=O)(=O)Cc3ccccc3/C=C/C(=O)NCCNC(=O)CCc3ccc4n3[B-](F)(F)[N+]3=C(c5ccc[nH]5)C=CC3=C4)CC2)nc1C [AZD1283-1-NB590] | – | – | – | – | – | – | – | – | – | – | NanoBRET Fold Response (HTR1B; HTR1B, 0.1μM): 0.89; NanoBRET Fold Response (HTR1B; HTR1B, 1μM): 0.99; NanoBRET Fold Response (RXFP3; RXFP3, 0.1μM): 0.94; NanoBRET Fold Response (RXFP3; RXFP3, 1μM): 1.12; NanoBRET Fold Response (OPRL1; OPRL1, 0.1μM): 0.98; NanoBRET Fold Response (OPRL1; OPRL1, 1μM): 1.15; NanoBRET Fold Response (NPBWR1; NPBWR1, 0.1μM): 1.02; NanoBRET Fold Response (NPBWR1; NPBWR1, 1μM): 0.98; NanoBRET Fold Response (CCR7; CCR7, 0.1μM): 1.03; NanoBRET Fold Response (CCR7; CCR7, 1μM): 1.01
3 | Cc1cc2c(s1)Nc1ccccc1N=C2N1CCN(CCCNC(=O)CCOCCOCCOCCOCCNC(=O)CCc2ccc3n2[B-](F)(F)[N+]2=C(c4ccc[nH]4)C=CC2=C3)CC1 [Olanzapine-a-2-NB590] | 2.53 | 2.81 | 0.97 | 1.11 | 1.02 | 0.47 | 0.99 | 1.02 | 1.01 | 1.05 | –
4 | COc1ccccc1N1CCN(CCCCN2C(=O)c3ccc(CNC(=O)CCOCCNC(=O)c4ccc(CNC(=O)CCc5ccc6n5[B-](F)(F)[N+]5=C(c7ccc[nH]7)C=CC5=C6)cc4)cc3C2=O)CC1 [NAN-190-3-NB590] | 1.38 | 1.42 | 1.08 | 0.95 | 1.08 | 1.41 | 0.92 | 0.91 | 1.01 | 1.00 | –
5 | CC(C)N(CC[C@H](c1ccccc1)c1cc(CCNC(=O)CCOCCOCCOCCOCCNC(=O)CCc2ccc3n2[B-](F)(F)[N+]2=C(c4ccc[nH]4)C=CC2=C3)ccc1O)C(C)C [Tolterodine-2-NB590] | 0.79 | 1.12 | 1.18 | 1.10 | 1.07 | 0.90 | 1.26 | 0.94 | 1.26 | 0.88 | –
6 | CN(C)CCC=C1c2ccccc2CCc2ccc(C(=O)NCCNC(=O)CCOCCOCCOCCOCCNC(=O)CCc3ccc4n3[B-](F)(F)[N+]3=C(c5ccc[nH]5)C=CC3=C4)cc21 [Amitriptyline-b-2-NB590] | – | – | – | – | – | – | – | – | – | – | NanoBRET Fold Response (HTR1B; [1]): 1.76; NanoBRET Fold Response (HTR1B; [2]): 1.34; NanoBRET Fold Response (RXFP3; [1]): 0.98; NanoBRET Fold Response (RXFP3; [2]): 1.03; NanoBRET Fold Response (OPRL1; [1]): 1.14; NanoBRET Fold Response (OPRL1; [2]): 1.14; NanoBRET Fold Response (NPBWR1; tracer at 0.1μM): 1.04; NanoBRET Fold Response (NPBWR1; tracer at 1μM): 1.03; NanoBRET Fold Response (CCR7; [1]): 1.00; NanoBRET Fold Response (CCR7; [2]): 1.00
7 | O=C(CCOCCOCCOCCOCCNC(=O)CCc1ccc2n1[B-](F)(F)[N+]1=C(c3ccc[nH]3)C=CC1=C2)NCCCN1CCN(C2=Nc3ccccc3Oc3ccc(Cl)cc32)CC1 [Loxapine-a-2-NB590] | 2.42 | 2.84 | 1.11 | 1.22 | 1.00 | 0.89 | 1.02 | 0.93 | 1.00 | 1.11 | –
8 | CN(C)CCC=C1c2ccccc2CCc2ccc(C(=O)NCCNC(=O)CCOCCOCCOCCOCCNC(=O)CCc3ccc4n3[B-](F)(F)[N+]3=C(c5ccc[nH]5)C=CC3=C4)cc21 [Amitriptyline-a-2-NB590] | – | – | – | – | – | – | – | – | – | – | NanoBRET Fold Response (HTR1B; tracer at 0.1μM): 0.98; NanoBRET Fold Response (RXFP3; tracer at 0.1μM): 0.97; NanoBRET Fold Response (RXFP3; tracer at 1μM): 0.99; NanoBRET Fold Response (OPRL1; tracer at 0.1μM): 1.01; NanoBRET Fold Response (OPRL1; tracer at 1μM): 0.95; NanoBRET Fold Response (CCR7; tracer at 0.1μM): 1.01; NanoBRET Fold Response (CCR7; tracer at 1μM): 0.99
9 | N#CN/C(=N\CCNC(=O)c1ccc(N)cc1)NCCCOc1cccc(CN2CCCCC2)c1 [Aminopotentidine (unmodified)] | – | – | – | – | – | – | – | – | – | – | NanoBRET Fold Response (HTR1B; HTR1B, other tracers/Aminopotentidine (unmodified), 0.1μM): 1.50; NanoBRET Fold Response (HTR1B; HTR1B, other tracers/Aminopotentidine (unmodified), 1μM): 1.48
10 | CN(CCC=C1c2ccccc2CCc2ccccc21)C(=O)CCOCCOCCOCCOCCNC(=O)CCc1ccc2n1[B-](F)(F)[N+]1=C(c3ccc[nH]3)C=CC1=C2 [Amitriptyline-e-2-NB590] | – | – | – | – | – | – | – | – | – | – | NanoBRET Fold Response (HTR1B; tracer at 1μM): 1.01; NanoBRET Fold Response (OPRL1; tracer at 1μM): 1.10; NanoBRET Fold Response (CCR7; tracer at 1μM): 1.03
